The values below come from patent US12187701B2, “Taire family kinase inhibitors and uses thereof” (Dana-Farber Cancer Institute, Inc., priority 2018, dated 2025).

The target in one experiment is Cdk14/CycY (Homo sapiens (Human), UniProt O94921). Kind of experiment: Lanthascreen Eu kinase binding assay for Cdk14/CycY with 30 minute pre-incubation. Conditions: 30 minute pre-incubation of kinase with compound; read-out: IC50 CDK14 binding by Lanthascreen. As to the method:
Lanthascreen Eu kinase binding assays were conducted for Cdk14/CycY largely as performed in the commercial assay service by Life Technologies, but included a 30 minute pre-incubation step of the kinase with candidate compounds to facilitate covalent bond formation.

In experiment [1] the target is T1, Cdk14 (Homo sapiens (Human), UniProt O94921). The experiment is described as follows: Cdk14 33P kinase assay (Reaction Biology Corp.). Type of experiment: biochemical.
Target sequence in this assay (O94921 whole entry, looked up, the tested form may be a part): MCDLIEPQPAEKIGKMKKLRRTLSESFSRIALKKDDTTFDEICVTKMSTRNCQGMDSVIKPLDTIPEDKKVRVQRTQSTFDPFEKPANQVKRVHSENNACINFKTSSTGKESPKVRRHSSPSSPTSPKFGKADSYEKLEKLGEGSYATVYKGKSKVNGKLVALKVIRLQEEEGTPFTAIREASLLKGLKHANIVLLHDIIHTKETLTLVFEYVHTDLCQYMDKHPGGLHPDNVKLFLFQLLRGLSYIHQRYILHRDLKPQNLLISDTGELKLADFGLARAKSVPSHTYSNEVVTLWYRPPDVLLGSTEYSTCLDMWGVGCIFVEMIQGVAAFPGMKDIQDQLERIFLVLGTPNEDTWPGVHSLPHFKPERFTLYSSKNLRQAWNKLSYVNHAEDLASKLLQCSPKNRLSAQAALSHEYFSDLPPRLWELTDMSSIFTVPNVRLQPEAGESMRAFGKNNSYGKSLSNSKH
Target sequence in this assay (Q8ND76 whole entry partner, looked up, the tested form may be a part): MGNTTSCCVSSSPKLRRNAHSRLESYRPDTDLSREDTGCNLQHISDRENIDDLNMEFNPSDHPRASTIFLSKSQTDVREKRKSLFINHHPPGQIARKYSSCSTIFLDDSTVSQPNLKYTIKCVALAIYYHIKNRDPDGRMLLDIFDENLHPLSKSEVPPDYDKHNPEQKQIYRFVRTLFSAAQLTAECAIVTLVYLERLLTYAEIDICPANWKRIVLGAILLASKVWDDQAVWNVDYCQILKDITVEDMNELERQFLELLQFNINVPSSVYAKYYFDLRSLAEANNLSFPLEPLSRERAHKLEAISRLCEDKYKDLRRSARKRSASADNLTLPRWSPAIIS
For experiment [2], the target named is T1, Cdk14. Kind of experiment: Cellular pull down with biotinylated probe, CDK14. Type of experiment: cell-based. As to conditions: HEK293 cells overexpressing Cdk14-flag. As to the method: HEK293 cells overexpressing a Cdk14-flag fusion protein were treated with candidate compounds for 4 hours. Cells were washed with PBS, harvested and lysed in Pierce IP buffer with protease and phosphatase inhibitors (Roche). […] To enhance pulldown, lysates were incubated at room temperature for an additional 2 hours. […] Beads were then washed 3 times with Pierce IP buffer, then boiled at 95° C. for 5 minutes in 2× LDS+10% β-mercaptoethanol. Proteins of interest engaged by the biotinylated compound were then assessed using western blotting.
Target sequence in this assay (O94921 whole entry, the tested form may be a part): as the sequence (O94921 whole entry, looked up, the tested form may be a part) above

The subject of another experiment is HCT116 cells. The experiment is described as follows: Antiproliferation assay, Cell Titer Glo, 72 hours. Type of experiment: cell-based. Conditions: Homo sapiens, HCT-116, 72 h. Put shortly:
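HCT116 cells seeded at 750 cells/well in McCoy's 5A with 10% FBS and exposed to four-fold compound dilution series for 72 h at 37 °C, 5% CO2. Viability by CellTiter-Glo luminescence, quadruplicate; IC50 by non-linear regression.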

The target of another experiment is CDK16/CycY (Homo sapiens (Human), UniProt Q00536). Kind of experiment: Lanthascreen Eu kinase binding assay for CDK16/CycY. Conditions: read-out: IC50 CDK16 Lanthascreen binding. On the procedure: Lanthascreen Eu kinase binding assays were conducted for CDK16/CycY at Life Technologies.
The target in the next experiment is CDK2/CycA (Homo sapiens (Human), UniProt P24941). Kind of experiment: Z'LYTE kinase assay for CDK2/CycA at Km ATP. Type of experiment: biochemical. As to conditions: read-out: IC50 CDK2 Z′LYTE kinase assay.
The mark [3] stands for this setting: 4 hours treatment, some cells print Y or N instead of a concentration.

Each structure is given as a SMILES string.

CDK16/CycY, sequence (Q00536 whole entry): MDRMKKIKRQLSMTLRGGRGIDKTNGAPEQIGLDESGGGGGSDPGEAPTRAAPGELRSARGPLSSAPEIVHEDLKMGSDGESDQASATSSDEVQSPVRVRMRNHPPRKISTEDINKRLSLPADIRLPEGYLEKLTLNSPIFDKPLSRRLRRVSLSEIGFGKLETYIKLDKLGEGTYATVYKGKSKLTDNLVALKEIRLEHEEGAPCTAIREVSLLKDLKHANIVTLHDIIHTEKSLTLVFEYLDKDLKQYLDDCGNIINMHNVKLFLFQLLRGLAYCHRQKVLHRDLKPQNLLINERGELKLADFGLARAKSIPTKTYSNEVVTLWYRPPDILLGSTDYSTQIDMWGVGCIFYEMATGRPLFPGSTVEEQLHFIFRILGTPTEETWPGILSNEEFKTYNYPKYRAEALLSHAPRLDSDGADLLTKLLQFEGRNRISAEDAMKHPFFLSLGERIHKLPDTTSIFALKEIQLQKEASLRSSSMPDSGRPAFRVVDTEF
CDK16/CycY, sequence (Q8ND76 whole entry partner): as the sequence (Q8ND76 whole entry partner, looked up, the tested form may be a part) above
Cdk14/CycY, sequence (O94921 whole entry): as the sequence (O94921 whole entry, looked up, the tested form may be a part) above
Cdk14/CycY, sequence (Q8ND76 whole entry partner): as the sequence (Q8ND76 whole entry partner, looked up, the tested form may be a part) above

With `C=CC(=O)Nc1cccc(C(=O)N2CCC(NC(=O)c3n[nH]cc3NC(=O)c3c(Cl)cccc3Cl)CC2)c1` [FMF-03-196-1, N-(1-(3-acrylamidobenzoyl)piperidin-4-yl)-4-(2,6-dichlorobenzamido)-1H-pyrazole-3-carboxamide], the IC50 at Cdk14/CycY was 0.045 µM; on Cdk14 [1], 0.0365 µM; in the experiment on HCT116 cells, 0.032 µM; at CDK16/CycY, 0.0114 µM; at CDK2/CycA, 0.0034 µM. In addition, at Cdk14 [2] (setting [3]), the “Cellular Potency by Pulldown” value was determined as 1 µM.

For the molecule `CN(C)C/C=C/C(=O)Nc1ccc(S(=O)(=O)N2CCC(NC(=O)c3n[nH]cc3NC(=O)c3c(Cl)cccc3Cl)CC2)cc1` [FMF-03-197-2, (E)-4-(2,6-dichlorobenzamido)-N-(1-((4-(4-(dimethylamino)but-2-enamido)phenyl)sulfonyl)piperidin-4-yl)-1H-pyrazole-3-carboxamide], the IC50 at Cdk14/CycY came to 0.0026 µM; against Cdk14 [1], 0.0428 µM; with HCT116 cells it was 0.023 µM; at CDK16/CycY, 0.0012 µM; at CDK2/CycA, 0.0028 µM.

Consider `CN(C)C/C=C/C(=O)Nc1ccc(CN2CCC(NC(=O)c3n[nH]cc3NC(=O)c3c(Cl)cccc3Cl)CC2)cc1` [FMF-03-199-2, (E)-4-(2,6-dichlorobenzamido)-N-(1-(4-(4-(dimethylamino)but-2-enamido)benzyl)piperidin-4-yl)-1H-pyrazole-3-carboxamide], for which the IC50 stood at 0.014 µM at Cdk14/CycY; 0.786 µM against Cdk14 [1]; 0.0026 µM in the experiment on HCT116 cells; 0.0182 µM at CDK16/CycY; 0.024 µM at CDK2/CycA.

Take `C=CC(=O)Nc1cccc(C(=O)Nc2ccc(NC(=O)c3n[nH]cc3NC(=O)c3c(Cl)cccc3Cl)cc2)c1` [FMF-03-205-1, N-(4-(3-acrylamidobenzamido)phenyl)-4-(2,6-dichlorobenzamido)-1H-pyrazole-3-carboxamide]: the IC50 at Cdk14/CycY was found to be 1.01 µM; in the experiment on HCT116 cells, 0.006 µM. Also, at Cdk14 [2] (setting [3]), the “Cellular Potency by Pulldown” value stood at 0.5 µM.

`CN(C)C/C=C/C(=O)Nc1cccc(C(=O)Nc2ccc(NC(=O)c3n[nH]cc3NC(=O)c3c(Cl)cccc3Cl)cc2)c1` [FMF-03-206-1, (E)-4-(2,6-dichlorobenzamido)-N-(4-(3-(4-(dimethylamino)but-2-enamido)benzamido)phenyl)-1H-pyrazole-3-carboxamide]: the IC50 on Cdk14/CycY was found to be 0.017 µM; against Cdk14 [1], 0.342 µM; with HCT116 cells, 0.037 µM; on CDK16/CycY, 0.0568 µM; on CDK2/CycA, 0.0224 µM. Further, the “Cellular Potency by Pulldown” value at Cdk14 [2] (setting [3]) worked out at 1 µM.

Consider `CN(C)C/C=C/C(=O)Nc1ccc(C(=O)Nc2ccc(NC(=O)c3n[nH]cc3NC(=O)c3c(Cl)cccc3Cl)cc2)cc1` [FMF-04-012-2, (E)-4-(2,6-dichlorobenzamido)-N-(4-(4-(4-(dimethylamino)but-2-enamido)benzamido)phenyl)-1H-pyrazole-3-carboxamide], for which the IC50 at Cdk14/CycY worked out at 0.068 µM; against Cdk14 [1], 0.56 µM; in the experiment with HCT116 cells, 0.014 µM; at CDK16/CycY, 0.111 µM; at CDK2/CycA, 0.0528 µM.

Regarding `C=CC(=O)Nc1cccc(S(=O)(=O)N2CCC(NC(=O)c3n[nH]cc3NC(=O)c3c(F)cc(F)cc3F)CC2)c1` [FMF-04-095-1, N-(1-((3-acrylamidophenyl)sulfonyl)piperidin-4-yl)-4-(2,4,6-trifluorobenzamido)-1H-pyrazole-3-carboxamide], the IC50 is 0.122 µM at Cdk14/CycY, greater than 1 µM at Cdk14 [1], 0.007 µM with HCT116 cells and 0.0075 µM at CDK2/CycA.

As for `CN(C)C/C=C/C(=O)Nc1cccc(S(=O)(=O)N2CCC(NC(=O)c3n[nH]cc3NC(=O)c3c(F)cc(F)cc3F)CC2)c1` [FMF-04-095-2, (E)-N-(1-((3-(4-(dimethylamino)but-2-enamido)phenyl)sulfonyl)piperidin-4-yl)-4-(2,4,6-trifluorobenzamido)-1H-pyrazole-3-carboxamide], the IC50 on Cdk14/CycY stood at 0.0102 µM; on Cdk14 [1], 0.38 µM; in the experiment with HCT116 cells, 0.09 µM; on CDK16/CycY, 0.0052 µM; on CDK2/CycA, 0.0037 µM. For the same molecule, the “Cellular Potency by Pulldown” value on Cdk14 [2] (setting [3]) was found to be 0.5 µM.

Turning to `C=CC(=O)Nc1cccc(S(=O)(=O)N2CCC(NC(=O)c3n[nH]cc3NC(=O)c3c(F)cccc3F)CC2)c1` [FMF-04-096-1, N-(1-((3-acrylamidophenyl)sulfonyl)piperidin-4-yl)-4-(2,6-difluorobenzamido)-1H-pyrazole-3-carboxamide], the IC50 on Cdk14/CycY was greater than 1 µM; at Cdk14 [1] it was 0.284 µM; in the experiment with HCT116 cells, 0.114 µM.

`CN(C)C/C=C/C(=O)Nc1cccc(S(=O)(=O)N2CCC(NC(=O)c3n[nH]cc3NC(=O)c3c(F)cccc3F)CC2)c1` [FMF-04-096-2, (E)-4-(2,6-difluorobenzamido)-N-(1-((3-(4-(dimethylamino)but-2-enamido)phenyl)sulfonyl)piperidin-4-yl)-1H-pyrazole-3-carboxamide]: the IC50 at Cdk14/CycY is 0.0034 µM; against Cdk14 [1], 0.268 µM; in the experiment with HCT116 cells, 0.157 µM; on CDK16/CycY, 0.0026 µM; at CDK2/CycA, 0.0026 µM. Also, the “Cellular Potency by Pulldown” value on Cdk14 [2] (setting [3]) was determined as 0.25 µM.

For `C=CC(=O)Nc1cccc(S(=O)(=O)N2CCC(NC(=O)c3n[nH]cc3NC(=O)c3c(F)cccc3OC)CC2)c1` [FMF-04-097-1, N-(1-((3-acrylamidophenyl)sulfonyl)piperidin-4-yl)-4-(2-fluoro-6-methoxybenzamido)-1H-pyrazole-3-carboxamide], the IC50 is 0.0016 µM at Cdk14/CycY, 0.088 µM against Cdk14 [1] and 0.009 µM in the experiment with HCT116 cells.

With `COc1cccc(F)c1C(=O)Nc1c[nH]nc1C(=O)NC1CCN(S(=O)(=O)c2cccc(NC(=O)/C=C/CN(C)C)c2)CC1` [FMF-04-097-2, (E)-N-(1-((3-(4-(dimethylamino)but-2-enamido)phenyl)sulfonyl)piperidin-4-yl)-4-(2-fluoro-6-methoxybenzamido)-1H-pyrazole-3-carboxamide], the IC50 on Cdk14/CycY is greater than 1 µM; on Cdk14 [1], 0.238 µM; in the experiment with HCT116 cells, 0.174 µM; at CDK16/CycY, 0.0028 µM; on CDK2/CycA, 0.0037 µM. The “Cellular Potency by Pulldown” value at Cdk14 [2] (setting [3]) was 0.25 µM.

For `C=CC(=O)Nc1cccc(S(=O)(=O)N2CCC(NC(=O)c3n[nH]cc3NC(=O)c3c(Cl)cc(Cl)cc3Cl)CC2)c1` [FMF-04-159-1, N-(1-((3-acrylamidophenyl)sulfonyl)piperidin-4-yl)-4-(2,4,6-trichlorobenzamido)-1H-pyrazole-3-carboxamide], the IC50 was 0.049 µM on Cdk14/CycY; 1.05 µM on Cdk14 [1]; 0.025 µM in the experiment with HCT116 cells; 0.0466 µM on CDK16/CycY; 0.0206 µM at CDK2/CycA. Also, the “Cellular Potency by Pulldown” value at Cdk14 [2] (setting [3]) is 0.5 µM.

Consider `C=CC(=O)Nc1cccc(S(=O)(=O)N2CCC(NC(=O)c3n[nH]cc3NC(=O)c3c(Cl)ccc(OC)c3Cl)CC2)c1` [FMF-04-184-1, N-(1-((3-acrylamidophenyl)sulfonyl)piperidin-4-yl)-4-(2,6-dichloro-3-methoxybenzamido)-1H-pyrazole-3-carboxamide], for which the figures for the IC50 at Cdk14/CycY and in the experiment on HCT116 cells were 0.0004 µM and less than 0.001 µM, respectively. In addition, on Cdk14 [2] (setting [3]), the “Cellular Potency by Pulldown” value worked out at 0.1 µM.

Take `COc1ccc(Cl)c(C(=O)Nc2c[nH]nc2C(=O)NC2CCN(S(=O)(=O)c3cccc(NC(=O)/C=C/CN(C)C)c3)CC2)c1Cl` [FMF-04-184-2, (E)-4-(2,6-dichloro-3-methoxybenzamido)-N-(1-((3-(4-(dimethylamino)but-2-enamido)phenyl)sulfonyl)piperidin-4-yl)-1H-pyrazole-3-carboxamide]: the IC50 at Cdk14/CycY stood at 0.0064 µM; with HCT116 cells, 0.023 µM; at CDK16/CycY, 0.0018 µM; at CDK2/CycA it was 0.0035 µM. Besides, the “Cellular Potency by Pulldown” value on Cdk14 [2] (setting [3]) came to 0.1 µM.

With `C=CC(=O)Nc1cccc(S(=O)(=O)N2CCC(NC(=O)c3n[nH]cc3NC(=O)c3c(OC)cc(OC)cc3OC)CC2)c1` [FMF-05-028-1, N-(1-((3-acrylamidophenyl)sulfonyl)piperidin-4-yl)-4-(2,4,6-trimethoxybenzamido)-1H-pyrazole-3-carboxamide], the results for the IC50 at Cdk14/CycY and in the experiment on HCT116 cells were 0.048 µM and greater than 10 µM, respectively. For the same molecule, the “Cellular Potency by Pulldown” value on Cdk14 [2] (cell prints LOW (>1 uM)) is recorded as “LOW (>1 uM)”.

Consider `CN(C)C/C=C/C(=O)Nc1ccc(CNC(=O)c2n[nH]cc2NC(=O)c2c(Cl)cccc2Cl)cc1` [FMF-05-064-2, (E)-4-(2,6-dichlorobenzamido)-N-(4-(4-(dimethylamino)but-2-enamido)benzyl)-1H-pyrazole-3-carboxamide], for which the IC50 is 0.108 µM on Cdk14/CycY and 4.7 µM with HCT116 cells. Also, on Cdk14 [2] (cell prints LOW (>1 μM)), the “Cellular Potency by Pulldown” value is on record as “LOW (>1 μM)”.

As to `C=CC(=O)Nc1cccc(CNC(=O)c2n[nH]cc2NC(=O)c2c(Cl)cccc2Cl)c1` [FMF-05-067-1, N-(3-acrylamidobenzyl)-4-(2,6-dichlorobenzamido)-1H-pyrazole-3-carboxamide], the figures for the IC50 against Cdk14 [1] and in the experiment with HCT116 cells were greater than 1 µM and 8.5 µM, respectively.
